For this experiment, the system named is collagen I. Nature of the experiment: Synthesis of collagen I on human dermal fibroblast (immunolabeling). It is filed as cell-based. Particulars: 10^−6%, positive control. As for the experimental part:
Normal human fibroblasts (NHF) are cultivated in MW24 plates for 24 hours. The cells are contacted or not with the Lipo-Phosphomalate of the invention at various concentrations for 7 days. The synthesis of collagen I produced by the cells is then quantified by immunolabeling fixed on the layers using a specific antibody. Quantification by image analysis is then performed on the photos. TGF-β1 is used as positive control.
An analysis of variance was performed on the data (cases treated compared with untreated cases). In the case of identity of variances, a Student't test was then performed on the means.

With “TGF- β1: positive control for laminin and collagen I synthesis”, the “collagen I % Variation/control” value is listed as “+1374%;” and the “collagen I AFU mean” value is listed as 55 +/− 17.6 AFU.
